Laboratory results reported in US8389573B2, “Glycyrrhetinic acid derivatives” (Wellington Laboratories Inc., priority 2006, dated 2013).
Values belong to the compound of their own block, whether it stands above or below them.

Experiments:
SW480 cells = assay: Western blot analysis in SW480 cells; assay type: cell-based, human; settings: SW480, treatment for 3 days
Experimental: SW-480 and HT-29 (3×10^5) cells were seeded in six-well plates in DMEM/Ham's F-12 media containing 2.5% charcoal-stripped FBS for 24 h and then treated with either the vehicle (DMSO) or the indicated compounds. Whole-cell lysates were obtained using high-salt buffer [50 mM HEPES, 500 mM NaCl, 1.5 mM MgCl2, 1 mM EGTA, 10% glycerol, and 1% Triton X-100, pH 7.5, and 5 μl/ml Protease Inhibitor Cocktail (Sigma-Aldrich)]. Protein samples were incubated at 100° C. for 2 min, separated on 10% SDS-PAGE at 120 V for 3 to 4 h in 1× running buffer (25 mM Tris-base, 192 mM glycine, and 0.1% SDS, pH 8.3), and transferred to polyvinylidene difluoride membrane (PVDF; Bio-Rad, Hercules, Calif.) at […] for 16 h at 4° C. in 1× transfer buffer (48 mM Tris-HCl, 39 mM glycine, and 0.025% SDS). The PVDF membrane was blocked in 5% TBST-Blotto (10 mM Tris-HCl, 150 mM NaCl, pH 8.0, 0.05% Triton X-100, and 5% nonfat dry milk) with gentle shaking for 30 min and was incubated in fresh 5% TBST-Blotto with 1:1000 (for caveolin-1, p27, p21, cyclin D1, Grp78), 1:500 (for KLF4, NAG-1), 1:250 (for PARP), and 1:5000 (for β-actin) primary antibody overnight with gentle shaking at 4° C. After washing with TBST for 10 min, the PVDF membrane was incubated with secondary antibody (1:5000) in 5% TBST-Blotto for 90 min. The membrane was washed with TBST for 10 min, incubated with 10 ml of chemiluminescence substrate (PerkinElmer) for 1.0 min, and exposed to Kodak X-OMAT AR autoradiography film (Eastman Kodak, Rochester, N.Y.).

PPARγ = settings: SW480 cells, previous studies (22); cited from earlier work
[1] = molecular target: T1, PPARγ-coactivator interactions (Homo sapiens, UniProt P37231); settings: SW480 cells, reference (22); cited from earlier work
T1 construct: expressed in transfected cells; host or cells: SW480 cells, transient transfection (LipofectAMINE)
T1 sequence (P37231 238-503 limits assumed): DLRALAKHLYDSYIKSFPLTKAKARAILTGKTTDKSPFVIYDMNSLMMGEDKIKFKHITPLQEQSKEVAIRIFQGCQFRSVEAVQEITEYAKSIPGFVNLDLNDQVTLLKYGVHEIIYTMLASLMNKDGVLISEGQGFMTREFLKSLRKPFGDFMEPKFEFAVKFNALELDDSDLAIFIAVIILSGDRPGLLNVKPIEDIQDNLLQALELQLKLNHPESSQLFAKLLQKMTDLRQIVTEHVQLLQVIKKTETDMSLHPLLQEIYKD

LNCaP cells = assay: Western blot analysis and DNA fragmentation assay in LNCaP cells; assay type: cell-based, human; settings: 2.5 μM β-CDODA-Me, 24 hr
Experimental: Cell Proliferation and DNA Fragmentation Assays: LNCaP prostate cancer cells (2×10^4 per well) were added to 12-well plates and allowed to attach for 24 hr. The medium was then changed to DMEM/Ham's F-12 media containing 2.5% charcoal-stripped FBS, and either vehicle (DMSO) or the indicated C-DIMs were added. Fresh medium and indicated compounds were added every 48 hr, and cells were then trypsinized and counted after 2, 4, and 6 days using a Coulter Z1 cell counter (Beckman Coulter, Fullerton, Calif.). Each experiment was done in triplicate, and results are expressed as means±S.E. for each set of three experiments. The DNA fragmentation assay was performed using a BioVision Apoptotic DNA ladder extraction kit (BioVision, Mountain View, Calif.) according to the manufacturer's protocol.
Western Blot Analysis: Cells were seeded in DMEM:Ham's F-12 media containing 2.5% charcoal-stripped FBS for 24 hr and then treated with either the vehicle (DMSO) or the indicated compounds. Cells were collected by scraping in 150 μl high salt lysis buffer (50 mM HEPES, 0.5 M NaCl, 1.5 mM MgCl2, 1 mM EGTA, 10% (v/v) glycerol, 1% (v/v) Triton-X-100 and 5 μL/ml of Protease Inhibitor Cocktail (Sigma). The lysates were incubated on ice for 1 hr with intermittent vortexing followed by centrifugation at 20,000 g for 10 min at 4° C. Before electrophoresis, samples were boiled for 3 min at 100° C.; the amount of protein was determined and 60 μg protein applied per lane. Samples were subjected to SDS-PAGE on 10% gel at 120 V for 3 to 4 hr. Proteins were transferred on to polyvinylidene difluoride membrane (PVDF; Bio-Rad, Hercules, Calif.) at 0.9 amp for 90 min at 4° C. in 1× transfer buffer (48 mM Tris-HCl, 39 mM glycine, and 0.025% SDS). The membranes were blocked for 30 min with 5% TBST-Blotto (10 mM Tris-HCl, 150 mM NaCl (pH 8.0), 0.05% Triton X-100 and 5% non-fat dry milk) and incubated in fresh 5% TBST-Blotto with primary antibody overnight with gentle shaking at 4° C. After washing with TBST for 10 min, the PVDF membrane was incubated with secondary antibody (1:5000) in 5% TBST-Blotto for 2-3 hr. The membrane was washed with TBST for 10 min and incubated with 10 ml of chemiluminescence substrate (PerkinElmer Life Sciences) for 1.0 min and exposed to ImageTeK-H medical imaging film (Eastman American X-ray Supply, Inc.).

p21 promoter = p21 promoter construct luciferase assay in LNCaP cells; assay type: cell-based; settings: 10 μM PD98059
[2] = tested on: Sp1, Sp3 and Sp4 in liver; assay: Sp protein expression in non-target tissue (liver) of treated mice; assay type: in vivo; settings: preliminary results
Text: (i) Animal treatment: Male athymic nude mice are obtained from commercial sources and their use approved by the Institutional Animal Care and Use Committee. Ten animals are used for each treatment group and based on consultation with biostatisticians, this number is sufficient for determining statistical significance between treatment groups (41, 42). At least one AR-positive (LNCaP/22Rv1) and AR-negative (PC3/DU145) prostate cancer cell line is used in the xenograft study. Cells are harvested by exposure to trypsin and resuspended in serum-free Hanks' balanced salt solution (HBSS). […] In addition, Western blot analysis of Sp proteins, proapoptotic and antiangiogenic responses is determined on whole cell lysates from compound- and corn oil (vehicle)-treated tumors. Where possible (depending on the amount of protein extracted), the effects of the compound versus corn oil on expression of these proteins is quantitated and statistically analyzed. In addition, the effects of the compound on Sp protein expression in non-target tissue (e.g. liver and kidney) is determined. […] Immunostaining for Sp1, Sp3 and Sp4 and for angiogenic (VEGF, VEGFR1 and VEGFR2) and apoptotic (cleaved PARP, activated caspase 3, survivin and TUNEL) proteins/responses are determined as described above.

Compound: COC(=O)[C@]12CCC(C)(C)C[C@H]1[C@H]1C(=O)C=C3[C@@]4(C)C=C(C#N)C(=O)C(C)(C)[C@@H]4CC[C@@]3(C)[C@]1(C)CC2 [CDDO-Me]
caveolin-1 protein expression (SW480 cells): induce caveolin-1 protein
luciferase activity with GAL4-PPARγ/GAL4-Luc (PPARγ): induced luciferase activity
interactions between VP-PPARγ and GAL4-coactivator/corepressor chimeras (SRC1, SRC2, SRC3, PGC1, TRAP220, CARM1, SMRT) [1]: induced interactions

Compound: COc1cccc(-c2cc(=O)c3ccccc3o2)c1N [PD98059, reference compound]
effect of kinase inhibitor on induction of ATF-3 by β-CDODA-Me (LNCaP cells): blocked induction
effect of kinase inhibitor on induction of NAG-1 by β-CDODA-Me (LNCaP cells): inhibited induction
effect on β-CDODA-Me downregulation of cyclin D1 and induction of p21 (LNCaP cells): partially blocked
effect on β-CDODA-Me-induced p21-luc(101) luciferase activity (p21 promoter): inhibited this response

Sp1, Sp3 and Sp4 expression in liver [2]: unaffected
Compound: COC(=O)[C@@]1(C)CCC2(C)CC[C@]3(C)C(=CC(=O)[C@@H]4C5(C)C=C(I)C(=O)C(C)(C)[C@@H]5CCC43C)C2C1 (stereo partly drawn) [β-IDODA-Me, Methyl 2-iodo-3,11-dioxo-18β-oleana-1,12-diene-30-oate]
